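Grown in 96-well plates, cells were treated for 48 hours with each compound at five concentrations. Insufficient inhibition: endpoint recorded as highest concentration tested. GI50: concentration for 50% inhibition of growth. The concentration for full growth arrest is given as TGI.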

This note sets out measurements from PubChem BioAssay (NCI).

What all share (assay): inhibition of tumour cell growth, NCI panel, 48 h
Assay [1] deals with SR leukemia.
For assay [2], the system named is SF-268 CNS.
Assay [3] has as its system OVCAR-3 ovarian.
For assay [4], the system named is SNB-19 CNS.
Assay [5] relates to SF-539 CNS.
The test system of assay [6] is SN12C renal.
Assay [7] has as its system SK-MEL-28 melanoma.
Assay [8] relates to SK-MEL-5 melanoma.
The test system of assay [9] is CAKI-1 renal.

Regarding `COc1ccc(NC(=O)CC2SC(=Nc3ccccc3C)NC2=O)c([N+](=O)[O-])c1` (stereo unspecified), the TGI in assay [1], in assay [2], in assay [3], in assay [4], in [5] and in [6] was more than 100 µM throughout. The TGI in [7] was more than 100 µM.
Consider `CCOC(=O)C(Cc1c[nH]c2c(N(CCO)CCO)cccc12)(NC(C)=O)C(=O)OCC`, for which the GI50 in assay [1] is 144 µM; in assay [2], more than 1000 µM; in assay [3] it was 270 µM; in [4], more than 1000 µM; in [5], more than 1 mM; in [6], 141 µM. Besides, the GI50 is 323 µM in assay [8] and 736 µM in assay [7]. Also, the TGI is 890 µM in [1]; more than 1000 µM in assay [2]; 873 µM in assay [3]; more than 1000 µM in [4]; more than 1000 µM in [5]; 290 µM in assay [6]. Also, the TGI in assay [8] and in assay [7] was more than 1000 µM in each case.
Consider `C=C(CC(NC(=O)c1ccc(C(CC)Cc2cnc3nc(N)nc(N)c3n2)cc1)C(=O)O)C(=O)O` (stereo unspecified), for which the TGI in [1], in [2], in assay [4], in assay [5], in assay [6] and in assay [8] was more than 100 µM throughout. This compound came in with a TGI in assay [7] of more than 100 µM. In addition, the GI50 in assay [2] was 0.0252 µM; in assay [6], 0.0205 µM.
Turning to `CCOC(=O)C1=C(Nc2ccc(Cl)cc2Cl)OCC1=O`, the TGI in assay [1], in [9], in [2], in [3], in assay [4] and in assay [5] was more than 100 µM throughout. For the same compound, the TGI in assay [6] and in assay [7] was more than 100 µM throughout.
As for `Cc1ccccc1NC(=O)c1cc(-c2ccc([N+](=O)[O-])cc2)nc(=S)[nH]1`, the TGI in assay [9], in assay [2], in assay [3], in assay [4], in assay [5] and in assay [6] was more than 100 µM each time. Also, the TGI in assay [8] and in assay [7] was more than 100 µM each time.
For the compound `COc1cc2c(c(OC)c1OC)-c1ncc3c(OC)c(OC)c(OC)cc3c1C2`, the GI50 in assay [9] was 23.9 µM; in [3], 21.5 µM; in [4] it was 40.1 µM; in assay [6] it was 20.3 µM; in assay [8], 16 µM; in [7], 34.9 µM. Also, the TGI in assay [9] was 83.5 µM; in assay [3], 50.9 µM; in [4], more than 100 µM; in assay [6] it was 64.8 µM; in [8], 30.5 µM; in [7] it was more than 100 µM.
Turning to `O=C(O)c1ccc(NCn2nc(-c3ccccc3O)oc2=S)cc1`, the GI50 in assay [9] is more than 100 µM; in assay [2], 96.4 µM; in [3], more than 100 µM; in assay [4], more than 100 µM; in assay [6], 50.5 µM; in [8], more than 100 µM. In assay [7], the GI50 was more than 100 µM. In addition, the TGI in assay [9], in [2], in [3], in [4], in [6] and in [8] was more than 100 µM in each case. This compound also returned a TGI in [7] of more than 100 µM.
As to `CC1=C(C(=O)CC(=O)C(=O)Nc2cc(C)ccc2C)Sc2ccccc2N1`, the TGI in assay [9], in assay [2], in assay [3], in [4], in assay [5] and in assay [6] was more than 100 µM each time. The TGI in [8] and in assay [7] was more than 100 µM throughout.
Turning to `CC(C)(C)c1cc(C(O)(C(F)(F)F)C(F)(F)F)c2c(c1)C(C(F)(F)F)(C(F)(F)F)OC(C)(C(C)(C)C)N2` (stereo unspecified), the TGI in [1] was 8.45 µM; in [3], 9.18 µM; in assay [4], more than 100 µM; in [6], 16.8 µM; in assay [8], 4.7 µM; in assay [7], 28.6 µM.
As to `COC/C=C\COC`, the TGI in [9], in assay [3], in [4], in assay [6], in assay [8] and in [7] was more than 100 µM throughout.
For `C#Cc1cccc(N2C(=O)c3c(c(-c4ccccc4)c(-c4ccc(Cc5ccc(-c6c(-c7ccccc7)c7c(c(-c8ccccc8)c6-c6ccccc6)C(=O)N(c6cccc(C#C)c6)C7=O)cc5)cc4)c(-c4ccccc4)c3-c3ccccc3)C2=O)c1`, the TGI in assay [2] was more than 100 µM; in assay [3], more than 100 µM; in assay [4], more than 100 µM; in [5] it was more than 100 µM; in [6], more than 100 µM; in [8], 62 µM. The TGI in assay [7] is more than 100 µM.
